Tested on: gene expression in D04 melanoma cells
Test: RNA-Seq differential expression analysis (DESeq2)
Assay type: cell-based, human
Experimental: Total RNA was isolated using the RNeasy mini Kit (QIAGEN) following the manufacturer's protocol. Quality check for extracted RNA was done using 2100 Bioanalyzer (Agilent Technologies, USA) or Tapestation System (Agilent Technologies, USA). […] For samples used for identification of MAPK-responsive lncRNAs, paired-end, 101-bp sequencing was performed by Centrillion Genomic Services (Centrillion Biosciences, USA) on an Illumina HiSeq 2000. For DE gene analysis of ASO-transfected D04 samples, paired-end, 2×150-bp sequencing was performed by Genewiz (USA) on a Illumina HiSeq.
Sequence reads were aligned to the human genome (hg19) using TopHat (Version 2.0.11).
Differential expression (DE) analysis was done using DESeq2. Differentially expressed genes were defined by more than 1.5-fold changes (log 2 >0.58 or <−0.58) in expression with FDR<0.05. GO term analysis was done using DAVID Functional Annotation Clustering analysis.
To examine the biomolecular changes upon TRASH-inhibition in melanoma, D04 cells were treated with TRASH-ASOs (SEQ ID NO:15) and Control-ASOs and RNA was extracted and used for RNA-Seq. […] These GO terms consisted of genes encoding growth factors, tyrosine kinases, G protein coupled receptor subunits, and collagen subunits. Scatter plot diagram showing differential gene expression after TRASH-ASO treatment compared to Control-ASO treatment. (cut-off for significance was adjusted p-value <0.05). Data was obtained from RNA-Seq of D04 melanoma cells, treatment period was three days. (FIG. 5c)

“GACTGGAGATAATTAA (gapmer, pattern not given here) [SEQ ID NO: 15, GapmeR ASO targeting AC004540.4 (TRASH), exon region of both isoforms; used for in vitro experiments]” was tested, and the log2FoldChange (PPM1L (ENSG00000163590)) was −0.7017, the log2FoldChange (PRICKLE2 (ENSG00000163637)) was −0.6639 and the log2FoldChange (PRR5L (ENSG00000135362)) was −0.6328. The log2FoldChange (PTPRN2 (ENSG00000155093)) was 2.844, the log2FoldChange (PTPRR (ENSG00000153233)) was 1.4591 and the log2FoldChange (PURPL (ENSG00000250337)) was −0.6494. For the same sequence, the log2FoldChange (PYROXD2 (ENSG00000119943)) was −0.6602, the log2FoldChange (RAB11FIP3 (ENSG00000090565)) was −0.5869 and the log2FoldChange (RAB26 (ENSG00000167964)) was −0.6129. For the same sequence, the log2FoldChange (RAB39B (ENSG00000155961)) was 2.06, the log2FoldChange (RASEF (ENSG00000165105)) was 1.674 and the log2FoldChange (RASL10B (ENSG00000270885)) was −0.6526. For the same sequence, the log2FoldChange (RBMS3 (ENSG00000144642)) was −0.6061, the log2FoldChange (RFTN2 (ENSG00000162944)) was −0.6802 and the log2FoldChange (RGS4 (ENSG00000117152)) was 1.366. It also gave a log2FoldChange (RGS5 (ENSG00000143248)) of −0.6262, a log2FoldChange (RINL (ENSG00000187994)) of 1.242 and a log2FoldChange (ROBO4 (ENSG00000154133)) of 2.692. For the same sequence, the log2FoldChange (RPLPOP2 (ENSG00000243742)) was 1.744, the log2FoldChange (RUNDC3A (ENSG00000108309)) was 1.302 and the log2FoldChange (S1PR2 (ENSG00000267534)) was −0.6769. It also gave a log2FoldChange (S100A3 (ENSG00000188015)) of −0.6246, a log2FoldChange (SAMD5 (ENSG00000203727)) of −0.6969 and a log2FoldChange (SAMD9L (ENSG00000177409)) of −0.5978. For the same sequence, the log2FoldChange (SBSN (ENSG00000189001)) was 1.621, the log2FoldChange (SBSPON (ENSG00000164764)) was −0.705 and the log2FoldChange (SCG2 (ENSG00000171951)) was −0.6659. The log2FoldChange (SCG5 (ENSG00000166922)) was 1.621, the log2FoldChange (SCN1B (ENSG00000105711)) was −0.608 and the log2FoldChange (SCN4A (ENSG00000007314)) was 2.301. It also gave a log2FoldChange (SDCCAG8 (ENSG00000054282)) of −0.7066, a log2FoldChange (SERPINB7 (ENSG00000166396)) of 1.415 and a log2FoldChange (SERPINI2 (ENSG00000114204)) of 2.645. The log2FoldChange (SH2D1B (ENSG00000198574)) was 1.495, the log2FoldChange (SHROOM4 (ENSG00000158352)) was −0.6228 and the log2FoldChange (SIGLEC15 (ENSG00000197046)) was 2.101. For the same sequence, the log2FoldChange (SIL1 (ENSG00000120725)) was −0.6521, the log2FoldChange (SLAMF7 (ENSG00000026751)) was 2.821 and the log2FoldChange (SLAMF9 (ENSG00000162723)) was 2.487. The log2FoldChange (SLC45A2 (ENSG00000164175)) was −0.6697, the log2FoldChange (SLCO4C1 (ENSG00000173930)) was −0.6425 and the log2FoldChange (SOCS2 (ENSG00000120833)) was −0.5921. It also gave a log2FoldChange (SOCS3 (ENSG00000184557)) of −0.6206, a log2FoldChange (SOX2 (ENSG00000181449)) of −0.7006 and a log2FoldChange (SPANXC (ENSG00000198573)) of 1.331. It also gave a log2FoldChange (SPINK1 (ENSG00000164266)) of 3.07, a log2FoldChange (SPINT2 (ENSG00000167642)) of 2.192 and a log2FoldChange (SPRY2 (ENSG00000136158)) of −0.6059. The log2FoldChange (SPRY4 (ENSG00000187678)) was −0.6537, the log2FoldChange (ST6GALNAC2 (ENSG00000070731)) was −0.6963 and the log2FoldChange (ST6GALNAC5 (ENSG00000117069)) was −0.6397. For the same sequence, the log2FoldChange (STRA6 (ENSG00000137868)) was −0.6369, the log2FoldChange (STX17-AS1 (ENSG00000255145)) was 1.8172 and the log2FoldChange (SULT1A1 (ENSG00000196502)) was −0.7045. For the same sequence, the log2FoldChange (SYNGR1 (ENSG00000100321)) was −0.6288, the log2FoldChange (SYT11 (ENSG00000132718)) was 1.326 and the log2FoldChange (SYT16 (ENSG00000139973)) was 1.62. For the same sequence, the log2FoldChange (TEK (ENSG00000120156)) was −0.6347, the log2FoldChange (TENM1 (ENSG00000009694)) was −0.7059 and the log2FoldChange (TFAP2E (ENSG00000116819)) was −0.6597. For the same sequence, the log2FoldChange (TGFB3 (ENSG00000119699)) was −0.6408, the log2FoldChange (TGFBR3 (ENSG00000069702)) was −0.639 and the log2FoldChange (THSD4 (ENSG00000187720)) was −0.6139. The log2FoldChange (TINAGL1 (ENSG00000142910)) was 1.287, the log2FoldChange (TM4SF1 (ENSG00000169908)) was 1.389 and the log2FoldChange (TMC8 (ENSG00000167895)) was 1.259. The log2FoldChange (TMEM117 (ENSG00000139173)) was −0.6405, the log2FoldChange (TMEM135 (ENSG00000166575)) was −0.6788 and the log2FoldChange (TNFRSF11B (ENSG00000164761)) was −0.5845. The log2FoldChange (TNFSF8 (ENSG00000106952)) was 1.66, the log2FoldChange (TNFSF10 (ENSG00000121858)) was −0.6562 and the log2FoldChange (TNFSF11 (ENSG00000120659)) was −0.6111. It also gave a log2FoldChange (TOM1L2 (ENSG00000175662)) of −0.6126, a log2FoldChange (TRIB2 (ENSG00000071575)) of −0.6666 and a log2FoldChange (TRIML2 (ENSG00000179046)) of 2.081. For the same sequence, the log2FoldChange (TSPAN9 (ENSG00000011105)) was −0.6484, the log2FoldChange (VIPR2 (ENSG00000106018)) was 1.91 and the log2FoldChange (VWA1 (ENSG00000179403)) was −0.6674. For the same sequence, the log2FoldChange (VWCE (ENSG00000167992)) was 1.639, the log2FoldChange (XAF1 (ENSG00000132530)) was −0.6048 and the log2FoldChange (XG (ENSG00000124343)) was 2.256. It also gave a log2FoldChange (ZC3H6 (ENSG00000188177)) of −0.6449, a log2FoldChange (ZDHHC11 (ENSG00000188818)) of 1.322 and a log2FoldChange (ZFYVE28 (ENSG00000159733)) of −0.6436. For the same sequence, the log2FoldChange (ZHX2 (ENSG00000178764)) was −0.5891, the log2FoldChange (ZNF165 (ENSG00000197279)) was 1.226 and the log2FoldChange (ZNF185 (ENSG00000147394)) was 1.367. For the same sequence, the log2FoldChange (ZSCAN31 (ENSG00000235109)) was −0.6972.
